According to publication PMC4791841, “Nanomolar Inhibitors of Trypanosoma brucei RNA Triphosphatase” (mBio, 2016):
Like-named read-outs stand apart in the source and are kept apart here.

Assays:
MimiCE = target: T1, MimiCE (Acanthamoeba polyphaga mimivirus, UniProt Q5UQX1); assay: biochemical; assay type: biochemical; conditions: for IC50/IC50 TbCet1, MimiCE: ratio in parentheses;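 for all read-outs here: mimivirus capping enzyme triphosphatase ATPase reaction, radiolabeled ATP hydrolysis to Pi quantified by TLC after 10 min, normalized to no-inhibitor control with 5% DMSO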
T1 construct: the N-terminal RTPase domain (amino acids [aa] 1 to 237) of mimivirus capping enzyme (MimiCE); HisSmt3 (N, cleaved yes); made in house; host or cells: Escherichia coli

CthTTM = target: T2, CthTTM (Acetivibrio thermocellus, UniProt A3DIJ8); assay: TLC assay for 32Pi release from [γ-32P]ATP, CthTTM; assay type: biochemical, Clostridium thermocellum; conditions: for IC50/IC50 TbCet1, CthTTM: ratio in parentheses
T2 sequence (A3DIJ8 1-156): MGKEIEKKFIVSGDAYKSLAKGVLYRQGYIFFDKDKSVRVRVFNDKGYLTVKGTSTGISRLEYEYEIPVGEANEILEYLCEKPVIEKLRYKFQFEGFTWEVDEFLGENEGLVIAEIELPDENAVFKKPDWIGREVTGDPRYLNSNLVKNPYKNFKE

Lef4 = target: T3, Lef4 (Autographa californica nuclear polyhedrosis virus, UniProt P41477); assay: TLC assay for 32Pi release from [γ-32P]ATP, Lef4; assay type: biochemical, Autographa californica nucleopolyhedrovirus (AcNPV); conditions: for IC50: 50 nM Lef4, 37°C, read-out: IC50 Lef4; for IC50/IC50 TbCet1, Lef4: ratio in parentheses;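 for all read-outs here: Lef4 RNA triphosphatase cleaving radiolabelled ATP over 10 min at 37°C, hydrolysis set relative to inhibitor-free 5% DMSO controls, comparisons made against TbCet1 tested the same way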
T3 construct: the N-terminal RTPase domain (aa 1 to 236) of AcNPV Lef4 capping enzyme; HisSmt3 (N, cleaved yes); made in house; host or cells: Escherichia coli

SceCet1 = target: T4, SceCet1 (Saccharomyces cerevisiae, UniProt O13297); assay: TLC assay for 32Pi release from [γ-32P]ATP, SceCet1; assay type: biochemical; conditions: for IC50/IC50 TbCet1, SceCet1: ratio in parentheses
T4 construct: C-terminal catalytic domain (aa 241 to 539) of S. cerevisiae RTPase (SceCet1); made in house; host or cells: Escherichia coli

TbCet1 = target: T5, TbCet1 (Trypanosoma brucei brucei, UniProt Q582T2); assay: TLC assay for 32Pi release from [γ-32P]ATP, TbCet1; conditions: for IC50: 2.2 nM TbCet1, 0.2 mM ATP, 2 mM Mn2+, 10 min 37°C; for inhibition of TbCet1 (in words): 32P phosphate release assay
T5 sequence (Q582T2 1-253): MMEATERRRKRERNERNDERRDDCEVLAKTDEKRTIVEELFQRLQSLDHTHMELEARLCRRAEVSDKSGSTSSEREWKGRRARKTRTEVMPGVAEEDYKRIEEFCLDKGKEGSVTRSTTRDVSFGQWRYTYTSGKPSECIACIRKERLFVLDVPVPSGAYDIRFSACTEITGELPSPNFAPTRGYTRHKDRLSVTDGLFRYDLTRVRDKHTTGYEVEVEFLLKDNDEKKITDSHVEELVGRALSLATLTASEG

[1] = read-out: IC50 MimiCE, 7 nM MimiCE, 37°C
[2] = 500 nM CthTTM, 37°C, read-out: IC50 CthTTM
[3] = 25 nM SceCet1, 30°C, read-out: IC50 SceCet1
[4] = read-out: IC50 CthTTM, 500 nM CthTTM, 37°C
[5] = read-out: IC50 SceCet1, 25 nM SceCet1, 30°C
[6] = read-out: IC50 TbCet1 by 32P assay

T1 sequence (Q5UQX1 1-237): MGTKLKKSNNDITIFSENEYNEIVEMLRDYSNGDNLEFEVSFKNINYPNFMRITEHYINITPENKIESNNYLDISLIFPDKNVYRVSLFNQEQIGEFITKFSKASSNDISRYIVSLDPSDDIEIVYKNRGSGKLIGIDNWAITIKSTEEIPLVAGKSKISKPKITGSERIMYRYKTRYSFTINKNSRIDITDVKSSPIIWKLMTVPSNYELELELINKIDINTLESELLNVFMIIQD
T4 sequence (O13297 241-539): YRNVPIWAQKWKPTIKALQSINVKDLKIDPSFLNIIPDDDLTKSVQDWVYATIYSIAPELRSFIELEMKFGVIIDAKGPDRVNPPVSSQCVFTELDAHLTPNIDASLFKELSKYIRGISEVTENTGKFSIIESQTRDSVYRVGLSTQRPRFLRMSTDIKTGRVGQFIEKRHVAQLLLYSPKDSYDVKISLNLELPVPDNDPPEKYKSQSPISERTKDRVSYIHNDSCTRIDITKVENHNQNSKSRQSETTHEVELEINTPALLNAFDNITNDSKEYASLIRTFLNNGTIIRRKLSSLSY
T3 sequence (P41477 1-236): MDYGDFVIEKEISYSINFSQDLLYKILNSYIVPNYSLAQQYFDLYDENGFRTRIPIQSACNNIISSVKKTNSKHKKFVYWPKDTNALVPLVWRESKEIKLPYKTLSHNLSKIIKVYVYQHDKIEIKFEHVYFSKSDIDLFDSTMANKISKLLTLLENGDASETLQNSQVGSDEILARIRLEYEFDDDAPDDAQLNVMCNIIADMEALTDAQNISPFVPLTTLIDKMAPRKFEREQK

| Compound | IC50/IC50 TbCet1, MimiCE (MimiCE) | IC50 (CthTTM; [2]) | IC50/IC50 TbCet1, CthTTM (CthTTM) | IC50 (Lef4) | IC50/IC50 TbCet1, Lef4 (Lef4) | IC50 (SceCet1; [3]) | IC50 (TbCet1; IC50 TbCet1 by 32P assay) | IC50 (MimiCE) | IC50 (TbCet1; [6]) | also measured |
| --- | --- | --- | --- | --- | --- | --- | --- | --- | --- | --- |
| O=C(/C=C/c1ccc(O)c(O)c1)OC1[C@H](OC(=O)/C=C/c2ccc(O)c(O)c2)CC(O)(C(=O)O)C[C@H]1OC(=O)/C=C/c1ccc(O)c(O)c1 (stereo in doubt) [Compound 1D, 3,4,5-Tricaffeoylquinic acid] | 107 | 160 µM | 1,067 | 7.2 µM | 48 | 10 µM | – | – | – | fold lower potency against MimiCE than against TbCet1 (MimiCE): 107 fold; IC50 (MimiCE; [1]): 16 µM; fold lower potency against CthTTM than against TbCet1 (CthTTM): 1,100 fold; fold lower potency against Lef4 than against TbCet1 (Lef4): 48 fold; fold lower potency against SceCet1 than against TbCet1 (SceCet1): 67 fold; IC50/IC50 TbCet1, SceCet1 (SceCet1): 67 |
| O=C(Oc1cc(C(=O)O[C@@H]2C[C@@](O)(C(=O)O)C[C@@H](O)[C@@H]2O)cc(O)c1O)c1cc(O)c(O)c(O)c1 [Compound 1C, 5-galloyl-galloylquinic acid] | – | – | – | 75 µM | 682 | – | – | – | – | fold more potent as TbCet1 inhibitor than 5-galloylquinic acid (compound 1O) (TbCet1): 1,100 fold; IC50 (CthTTM; [4]): > 500 µM; fold lower potency against Lef4 than against TbCet1 (Lef4): 680 fold; IC50 (SceCet1; [5]): > 500 µM |
| O=C(/C=C/c1ccc(O)c(O)c1)O[C@@H]1C[C@](OC(=O)/C=C/c2ccc(O)c(O)c2)(C(=O)O)C[C@@H](OC(=O)/C=C/c2ccc(O)c(O)c2)[C@H]1O [Compound 1E, 1,3,5-tricaffeoylquinic acid] | 44 | 33 µM | 174 | 5.6 µM | 29 | 29 µM | 0.19 µM | 8.4 µM | – | IC50/IC50 TbCet1, SceCet1 (SceCet1): 153 |
| O=C(Oc1cc(C(=O)O[C@@H]2C[C@@](O)(C(=O)O)C[C@@H](OC(=O)c3cc(O)c(O)c(O)c3)[C@@H]2O)cc(O)c1O)c1cc(O)c(O)c(O)c1 [Compound 1F, 3-galloyl,5-galloyl-galloylquinic acid] | 15 | – | 95 | 33 µM | 150 | – | – | – | – | IC50 (MimiCE; [1]): 3.4 µM; IC50 (CthTTM; [4]): 21 µM; IC50 (SceCet1; [5]): > 500 µM |
| O=C(/C=C/c1ccc(O)c(O)c1)O[C@@H]1C[C@](OC(=O)/C=C/c2ccc(O)c(O)c2)(C(=O)O)C[C@@H](O)[C@H]1O [Compound 1G, 1,3-dicaffeoylquinic acid] | 11 | 55 µM | 162 | 22 µM | 65 | > 500 µM | – | – | – | IC50 (MimiCE; [1]): 3.7 µM |
| O=C(/C=C/c1ccc(O)cc1)O[C@@H]1[C@H](O)C[C@@](O)(C(=O)O)C[C@H]1OC(=O)/C=C/c1ccc(O)cc1 [Compound 1H, 3,4-dicoumaroylquinic acid] | 40 | – | – | 140 µM | 108 | – | – | – | 1.3 µM | IC50 (MimiCE; [1]): 52 µM; IC50 (CthTTM; [4]): > 500 µM; IC50 (SceCet1; [5]): > 500 µM |
| O=C(/C=C/c1ccccc1)O[C@@H]1C[C@](OC(=O)/C=C/c2ccccc2)(C(=O)O)C[C@@H](OC(=O)/C=C/c2ccccc2)[C@H]1OC(=O)/C=C/c1ccccc1 [Compound 1I, tetracinnamoylquinic acid] | 11 | – | 11 | 6 µM | 4 | – | 1.6 µM | 17 µM | – | fold less potent as TbCet1 inhibitor than tetracaffeoylquinic acid (compound 1A) (TbCet1): 120 fold; IC50 (CthTTM): 17 µM; IC50 (SceCet1): > 500 µM |
| COc1ccc(/C=C/C(=O)O[C@@H]2C[C@@](O)(C(=O)O)C[C@@H](O)[C@@H]2O)cc1O [Compound 1J, 5-p-feruoylquinic acid] | – | > 500 µM | – | – | – | > 500 µM | – | – | 2.4 µM | – |
| O=C(OC1[C@H](OC(=O)c2ccccc2)CC(OC(=O)c2ccccc2)(C(=O)O)C[C@H]1OC(=O)c1ccccc1)c1ccccc1 (some centres unmarked) [Compound 1K] | 3 | – | 12 | 46 µM | 8 | – | 5.8 µM | 20 µM | – | IC50 (CthTTM): 72 µM; IC50 (SceCet1): > 500 µM |
| COc1cc(/C=C/C(=O)O[C@@H]2C[C@](O)(C(=O)O)C[C@@H](O)[C@H]2O)ccc1O [Compound 1L, 5-feruoylquinic acid] | – | > 500 µM | – | > 500 µM | – | > 500 µM | – | – | 12 µM | IC50 (MimiCE; 7 nM MimiCE, 37°C, read-out: IC50 MimiCE): > 500 µM |
| O=C(/C=C/c1ccc(O)cc1)O[C@@H]1CC(O)(C(=O)O)C[C@@H](OC(=O)/C=C/c2ccc(O)cc2)C1O (some centres unmarked) [Compound 1M, 3,5-dicoumaroylquinic acid] | – | – | – | > 500 µM | – | – | 24 µM | > 500 µM | – | fold drop in potency of TbCet1 inhibition versus 3,5-dicaffeoylquinic acid (compound 1B) (TbCet1): 340 fold; IC50 (CthTTM): > 500 µM; IC50 (SceCet1): > 500 µM |
| O=C(/C=C/c1ccc(O)cc1)OC1[C@H](O)CC(O)(C(=O)O)C[C@H]1O (some centres unmarked) [Compound 1N] | – | > 500 µM | – | > 500 µM | – | > 500 µM | 25 µM | > 500 µM | – | – |
| O=C(O[C@@H]1C[C@@](O)(C(=O)O)C[C@@H](O)[C@@H]1O)c1cc(O)c(O)c(O)c1 [Compound 1O, 5-galloylquinic acid] | – | – | – | > 500 µM | – | – | 125 µM | > 500 µM | – | activity against MimiCE (in words) (MimiCE): no activity; IC50 (CthTTM): > 500 µM; activity against CthTTM (in words) (CthTTM): no activity; activity against Lef4 (in words) (Lef4): no activity; IC50 (SceCet1): 10 µM; IC50/IC50 TbCet1, SceCet1 (SceCet1): 0.08 |
| COc1cc(C=CC(=O)OC2[C@H](O)CC(O)(C(=O)O)C[C@H]2O)ccc1O (some centres unmarked) [Compound 1P, 4-feruoylquinic acid] | – | – | – | – | – | – | – | – | 160 µM | fold less effective against TbCet1 than 5-feruoylquinic acid (TbCet1): 13 fold |
| COc1cc(/C=C/C(=O)OC2(C(=O)O)C[C@@H](O)C(O)[C@H](O)C2)ccc1O (some centres unmarked) [Compound 1R, 1-feruoylquinic acid] | – | – | – | – | – | – | – | – | > 500 µM | inhibition of TbCet1 (in words) (TbCet1): inactive |
| O=C(/C=C/c1ccc(O)c(O)c1)O[C@@H]1C[C@@](O)(C(=O)O)C[C@@H](O)[C@@H]1O [Compound 1T, 5-caffeoylquinic acid] | – | – | – | – | – | – | – | – | > 500 µM | – |
| O=C(C=Cc1ccccc1)OC1C=C(C(=O)O)CC(OC(=O)C=Cc2ccccc2)C1O (centres unmarked) [Compound 6D, 3,5-dicannamolylshikimate] | – | – | – | – | – | – | – | – | > 500 µM | inhibition of TbCet1 (in words) (TbCet1): did not inhibit |
| O=C(/C=C/c1ccc(O)c(O)c1)O[C@@H]1CC(C(=O)O)=C[C@@H](O)[C@H]1O [Compound 6E, 5-caffeoylshikimate] | – | – | – | – | – | – | – | – | > 500 µM | inhibition of TbCet1 (in words) (TbCet1): did not inhibit |
| O=C(O)[C@]1(O)C[C@@H](O)[C@@H](O)[C@H](O)C1 [Quinic acid, reference compound] | – | – | – | – | – | – | – | – | – | inhibition of TbCet1 (in words) (TbCet1): no inhibition |
| O=C(O)c1cc(O)c(O)c(O)c1 [gallic acid, 3,4,5-trihydroxybenzoic acid, reference compound] | – | – | – | – | – | – | – | – | – | inhibition of TbCet1 (in words) (TbCet1): no inhibition |
